Assay results taken from patent publication US20150337013A1, “NOVEL ANTIBACTERIAL AGENTS FOR THE TREATMENT OF GRAM POSITIVE INFECTIONS” (priority 2008, published 2015).
Where “and” joins values, the source holds several entries; their conditions need not be identical. Equal entries are not always repeated. Where two headings read alike, the source gives them in different places.

Columns and labels:
[1] = tested on: Enterococcus faecalis EFS.201 (ATCC 49452); format: cell-based
Outline: (§1)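 Broth microdilution per CLSI M7-A7 in Mueller Hinton broth supplemented with 50 mg/L calcium; 2-fold compound dilutions, 5×10^5 bacteria per well, DMSO ≤1% final, 18-20 h at 37° C with aeration (200 rpm). MIC (μg/mL) = lowest concentration with no visible turbidity (growth: visible turbidity or OD600 ≥0.1).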

[2] = tested on: Enterococcus faecalis EFS.312, Daptomycin resistant mutant (EFA); format: cell-based; conditions: MHBc with 50 mg/L calcium, 18-20 hours at 37° C.
Outline: as §1

[3] = tested on: Enterococcus faecium EFM.14 (ATCC 6569); format: cell-based
Outline: as §1

[4] = tested on: Enterococcus faecium EFM.384, Daptomycin resistant mutant (14-A); format: cell-based; conditions: MHBc with 50 mg/L calcium, 18-20 hours at 37° C.
Outline: as §1

[5] = tested on: Staphylococcus aureus SAU.278, Daptomycin resistant mutant (D10); format: cell-based; conditions: MHBc with 50 mg/L calcium, 18-20 hours at 37° C.
Outline: as §1

[6] = tested on: Staphylococcus aureus SAU.399 (ATCC 43300), Methicillin and Oxacillin Resistant; format: cell-based
Outline: as §1

[7] = tested on: Staphylococcus aureus SAU.42 (ATCC 29213); format: cell-based
Outline: as §1

[8] = tested on: Clostridium difficile
[9] = MHBc with 50 mg/L calcium, 18-20 hours at 37° C.

Structure (SMILES)	Efs201 MIC [1, 9]	Efs312 MIC [2]	Efm14 MIC [3, 9]	Efm384 MIC [4]	Sa278 MIC [5]	Sa399 MIC [6, 9]	Sa42 MIC [7, 9]	C. diff MIC90 [8]	Efs201 MIC ([1]; ATCC 49452)	Efm14 MIC ([3]; ATCC 6569)	Sa399 MIC ([6]; ATCC 43300)	Sa42 MIC ([7]; ATCC 29213)
CCCCCCCCOc1ccc(C(=O)N[C@@H](Cc2c[nH]c3ccccc23)C(=O)N[C@H](CC(N)=O)C(=O)N[C@@H](CC(=O)O)C(=O)N[C@@H]2C(=O)NCC(=O)N[C@@H](CCCN)C(=O)N[C@@H](CC(=O)O)C(=O)N[C@H](C)C(=O)N[C@@H](CC(=O)O)C(=O)NCC(=O)N[C@H](CO)C(=O)N[C@@H]([C@H](C)CC(=O)O)C(=O)N[C@@H](CC(=O)c3ccccc3N)C(=O)O[C@@H]2C)cc1 [Compound 36]	0.5 µg/mL	4 µg/mL	0.5 µg/mL	4 µg/mL	1.00 µg/mL	0.25 µg/mL	0.25 µg/mL	0.5 µg/mL				
CCCCCCCCCCCCOc1ccc(C(=O)N[C@@H](Cc2c[nH]c3ccccc23)C(=O)N[C@H](CC(N)=O)C(=O)N[C@@H](CC(=O)O)C(=O)N[C@@H]2C(=O)NCC(=O)N[C@@H](CCCN)C(=O)N[C@@H](CC(=O)O)C(=O)N[C@H](C)C(=O)N[C@@H](CC(=O)O)C(=O)NCC(=O)N[C@H](CO)C(=O)N[C@@H]([C@H](C)CC(=O)O)C(=O)N[C@@H](CC(=O)c3ccccc3N)C(=O)O[C@@H]2C)cc1 [Compound 39]	0.5 µg/mL	2 µg/mL	2.0 µg/mL	2 µg/mL	2.00 µg/mL	0.500 µg/mL	1.00 µg/mL	16 µg/mL				
CCCCCCCCCCCCCCCOc1ccc(C(=O)N[C@@H](Cc2c[nH]c3ccccc23)C(=O)N[C@H](CC(N)=O)C(=O)N[C@@H](CC(=O)O)C(=O)N[C@@H]2C(=O)NCC(=O)N[C@@H](CCCN)C(=O)N[C@@H](CC(=O)O)C(=O)N[C@H](C)C(=O)N[C@@H](CC(=O)O)C(=O)NCC(=O)N[C@H](CO)C(=O)N[C@@H]([C@H](C)CC(=O)O)C(=O)N[C@@H](CC(=O)c3ccccc3N)C(=O)O[C@@H]2C)cc1 [Compound 40]	4.0 µg/mL	8 µg/mL	32.0 µg/mL	32 µg/mL	16.00 µg/mL	4.000 µg/mL	4.00 µg/mL	32 µg/mL				
CCCCCOc1ccc(/C=C/C(=O)N[C@@H](Cc2c[nH]c3ccccc23)C(=O)N[C@H](CC(N)=O)C(=O)N[C@@H](CC(=O)O)C(=O)N[C@@H]2C(=O)NCC(=O)N[C@@H](CCCN)C(=O)N[C@@H](CC(=O)O)C(=O)N[C@H](C)C(=O)N[C@@H](CC(=O)O)C(=O)NCC(=O)N[C@H](CO)C(=O)N[C@@H]([C@H](C)CC(=O)O)C(=O)N[C@@H](CC(=O)c3ccccc3N)C(=O)O[C@@H]2C)cc1 [Compound 41]	4 µg/mL	>32 µg/mL	8 µg/mL	>32 µg/mL	2 µg/mL	2 µg/mL	4 µg/mL	4 µg/mL				
CCCCCCCc1csc(C(=O)N[C@@H](Cc2c[nH]c3ccccc23)C(=O)N[C@H](CC(N)=O)C(=O)N[C@@H](CC(=O)O)C(=O)N[C@@H]2C(=O)NCC(=O)N[C@@H](CCCN)C(=O)N[C@@H](CC(=O)O)C(=O)N[C@H](C)C(=O)N[C@@H](CC(=O)O)C(=O)NCC(=O)N[C@H](CO)C(=O)N[C@@H]([C@H](C)CC(=O)O)C(=O)N[C@@H](CC(=O)c3ccccc3N)C(=O)O[C@@H]2C)c1 [Compound 43, N-(4-heptylthiophene-2-carbonyl)-L-tryptophyl-D-asparaginyl-L-α-aspartyl-L-threonylglycyl-L-ornithyl-L-α-aspartyl-D-alanyl-L-α-aspartylglycyl-D-seryl-(3R)-3-methyl-L-α-glutamyl-(αS)-α,2-diamino-γ-oxobenzenebutanoic acid (13→4)-lactone]		32 µg/mL		16 µg/mL	1 µg/mL			2 µg/mL	1 µg/mL	1 µg/mL	0.5 µg/mL	0.125 µg/mL
CCCCc1ccc(CC(=O)N[C@@H](Cc2c[nH]c3ccccc23)C(=O)N[C@H](CC(N)=O)C(=O)N[C@@H](CC(=O)O)C(=O)N[C@@H]2C(=O)NCC(=O)N[C@@H](CCCN)C(=O)N[C@@H](CC(=O)O)C(=O)N[C@H](C)C(=O)N[C@@H](CC(=O)O)C(=O)NCC(=O)N[C@H](CO)C(=O)N[C@@H]([C@H](C)CC(=O)O)C(=O)N[C@@H](CC(=O)c3ccccc3N)C(=O)O[C@@H]2C)cc1 [Compound 44]		>32 µg/mL		>32 µg/mL	4 µg/mL			8.00 µg/mL	8 µg/mL	16 µg/mL	4 µg/mL	4 µg/mL
CCCCCCCc1ccc(NC(=O)N[C@@H](Cc2c[nH]c3ccccc23)C(=O)N[C@H](CC(N)=O)C(=O)N[C@@H](CC(=O)O)C(=O)N[C@@H]2C(=O)NCC(=O)N[C@@H](CCCN)C(=O)N[C@@H](CC(=O)O)C(=O)N[C@H](C)C(=O)N[C@@H](CC(=O)O)C(=O)NCC(=O)N[C@H](CO)C(=O)N[C@@H]([C@H](C)CC(=O)O)C(=O)N[C@@H](CC(=O)c3ccccc3N)C(=O)O[C@@H]2C)cc1 [Compound 51]		8 µg/mL		4 µg/mL	1 µg/mL			0.5 µg/mL	0.25 µg/mL	0.5 µg/mL	0.125 µg/mL	0.125 µg/mL
C[C@H](CC(=O)O)[C@@H]1NC(=O)[C@@H](CO)NC(=O)CNC(=O)[C@H](CC(=O)O)NC(=O)[C@@H](C)NC(=O)[C@H](CC(=O)O)NC(=O)[C@H](CCCN)NC(=O)CNC(=O)[C@@H](NC(=O)[C@H](CC(=O)O)NC(=O)[C@@H](CC(N)=O)NC(=O)[C@H](Cc2c[nH]c3ccccc23)NC(=O)c2ccc(-c3ccc(-c4ccccc4)cc3)s2)[C@@H](C)OC(=O)[C@H](CC(=O)c2ccccc2N)NC1=O [Compound 52, N-[5-(biphenyl-4-yl)thiophene-2-carbonyl]-L-tryptophyl-D-asparaginyl-L-α-aspartyl-L-threonylglycyl-L-ornithyl-L-α-aspartyl-D-alanyl-L-α-aspartylglycyl-D-seryl-(3R)-3-methyl-L-α-glutamyl-(αS)-α,2-diamino-γ-oxobenzenebutanoic acid (13→4)-lactone]	0.5 µg/mL	8 µg/mL and 16 µg/mL	1 µg/mL and 0.5 µg/mL	4 µg/mL	0.5 µg/mL	0.25 µg/mL	0.25 µg/mL	2 µg/mL				
CCCOc1ccc(-c2ccc(C(=O)N[C@@H](Cc3c[nH]c4ccccc34)C(=O)N[C@H](CC(N)=O)C(=O)N[C@@H](CC(=O)O)C(=O)N[C@@H]3C(=O)NCC(=O)N[C@@H](CCCN)C(=O)N[C@@H](CC(=O)O)C(=O)N[C@H](C)C(=O)N[C@@H](CC(=O)O)C(=O)NCC(=O)N[C@H](CO)C(=O)N[C@@H]([C@H](C)CC(=O)O)C(=O)N[C@@H](CC(=O)c4ccccc4N)C(=O)O[C@@H]3C)cc2)cc1 [Compound 59]		>32 µg/mL		32 µg/mL	4 µg/mL			4 µg/mL	4 µg/mL	4 µg/mL	0.5 µg/mL	0.5 µg/mL
